From EP1596818B1, “COSMETIC COMPOSITION WITH A WHITENING EFFECT, METHOD FOR THE PRODUCTION AND USE THEREOF” (Riemschneider, Randolph, Dr. Dr. Prof., priority 2003, dated 2004) come the findings set out here.

The structures appear in SMILES notation. Read-outs that look alike come from different tables or passages of the source.

A short description of data set [1]: B16 melanoma cell test for whitening effect (inhibition of melanin production). It is filed as cell-based, Mäusen. Conditions: mouse, b16 melanoma cells, cell number relative to control (1,00), read-out: Relativwert. As to the method: (§1) Nach Zerstörung der Emulsion der Handcreme durch Wasserzusatz und Erhitzen auf 80 °C wurde die wässrige Phase abgetrennt, im Vakuum eingeengt und der Zentrifugenrückstand wurde gefriergetrocknet.
(§2) Definierte Mengen des dabei erhaltenen Lyophilisats wurden in entionisiertem Wasser gelöst und nach den Angaben in dem weiter unten beschriebenen Testverfahren behandelt. Tabelle 1
(§3) Die grobe Beurteilung der Whitening-Effekte wurde vorgenommen nach der Abtrennung der Zellen unter Verwendung von 6 ml EDTA-Lösung und Auszählen der Zellen, z.B. Tabelle 1 und Tabelle 3 (Beurteilungskriterien auf S. 15).
(§4) • 1. Herstellung und Sterilisierung eines Test-Kulturmediums • 2. Herstellung einer Zellenflotationslösung • 3. Einstellung des pH-Wertes des Kulturmediums • 4. Ausstreichen des Kulturmediums auf einer Petrischale • 5. Einimpfen von B16-Melanom-Zellen von Mäusen • 6. […] Auswechseln des Kulturmediums am 3. Tag • 8.

Data set [2] concerns B16-Melanom-Zellen von Mäusen. The description is as above. Conditions: for Anzahl der Zellen: lyophilisate from aqueous phase of the hand cream, 6 days culture. It is filed as cell-based. The protocol:
as §1, §2, §3, §4

The subject of a further data set is Tyrosinase. The data set can be described thus: Tyrosinase inhibitor rate. The data set is classed as biochemical.
A short description of data set [3]: Preclinical test of local tolerability. An excerpt: Zusammenfassung: der Wirkstoff Methyl-ADAPD ist im Patch-Test auf allergisierendes Potenzial geprüft worden. In einer präklinischen Prüfung wurde die lokale Verträglichkeit abgeklärt.
Setting [4] is: Wirkstoff-Gehalt 1,25 mg/ml Lösung.
The mark [5] stands for this setting: Wirkstoff-Gehalt 2,5 mg/ml Lösung.

Turning to `CC(=O)C1C(=O)C=C(C)OC1=O` (stereo not drawn) [Methyl-ADAPD], the viability at 144 h in data set [1] (setting [4]) came out at 92%; in data set [1] (setting [5]), 86%. Further, the Whitening-Effekt entry was “+” in data set [2] (setting [4]) and “+++” in data set [2] (setting [5]). Moreover, the figures for the “Anzahl der Zellen” value in data set [2] (setting [4]) and in data set [2] (setting [5]) were 82x10^4 and 79x10^4, respectively. The Tyrosinase-Inhibitorrate in the data set on Tyrosinase (Wirkstoff-Gehalt 0,5 mg/ml Lösung) is 84%; with Tyrosinase (Wirkstoff-Gehalt 5 mg/ml Lösung) it was 99,1%. Besides, the “lokale Verträglichkeit” value in data set [3] is given as “keine Bedenken”.
